Values of other authors in patent US20170035825A1, “FOOD SUPPLEMENT COMPOSITION COMPRISING A CUCUMBER (CUCUMIS SATIVUS) EXTRACT” (NATURALEA SA, priority 2014, published 2017).

System: uterus explants

Question: Which results are given for `O=C(O)[C@@H]1NC[C@H](O)[C@@H](O)[C@@H]1O` [ido-BR1, (2R,3R,4R,5S)-3,4,5-trihydroxypiperidine-2-carboxylic acid]?
Answer: effect on inflammation at 72 h (72 h): not significant; inflammation in the uterus explants (dose-dependent): abrogated inflammation in the uterus explants
